Read-outs that look alike come from different tables or passages of the source.
Columns and labels:
HCT116 cells = assay: MTT cytotoxicity screening, human colon cancer cell line HCT116; type: cell-based; details: Homo sapiens
Text: Human colon cancer cell line HCT116 can be used for the preliminary cytotoxicity screening of the disclosed compounds as disclosed by Mosmann, T., “Rapid colorimetric assay for cellular growth and survival: application to proliferation and cytotoxicity assays.” J. Immunol. Methods, (1983) 65(1-2): p. 55-63 referred to herein further as the “MTT test” which is incorporated herein by reference in its entirety.
The disclosure of Mosmann recites the following. “MTT 93-(4,5-dimethylthirazol-2-yl)-2,5-diphenyl tetrazolium bromide; Sigman catalog no. M2128) was dissolved in PBS at 5 mg/ml and filtered to sterilize and remove a small amount of insoluble residue present in some batches of MTT. At the times indicated below, stock MTT solution (10 ml per 100 ml) was added to all wells of an assay, and plates were incubated at 37° C. for 4 h. Acid-siopropanol (100 ml of 0.04 N HCl in isopropanol) was added to all wells and mixed thoroughly to dissolve the dark blue crystals. After a few minutes at room temperature to ensure that all crystals were dissolved, the plates were read o a Dynatech MR580Microelisa reader, using a test wavelength of 570 nm, a reference wavelength of 630 nm, and a calibration setting of 1.99 (or 1.0 if the samples were strongly colored). Plates were normally read within 1 h of adding the isopropanol.
“Our final procedure was to add 0.01 ml MTT (5 mg/ml in phosphate-buffered saline) to 0.1 ml cells in growth medium. After 4 h at 37° C. for MTT cleavage, the formazan product was solublilized by the addition of 0.1 ml 0.04 N HCl in isopropanol. Optical density was measured on a Dynatech MR 580 plate reader, using a reference wavelength of 630 nm and a test wavelength of 570 nm.” 3-(4,5-Dimethylthiazol-2-yl)-2,5-diphenyltetrazolium bromide, a tetrazole, can pass through cellular membrane to enter into cells. This tetrazole may be reduced to the purple formazan in the mitochondria of living cells, which can diffuse out to form crystals. This crystal can be dissolved in the dimethyl sulfoxide to form a colored solution. The absorbance of this colored solution can be quantified by measuring at certain wavelength (490 nm) using a spectrophotometer. The quantity of the formazan crystal is proportional to the number of living cells.
As used herein, cells were cultured in McCoy's 5A medium supplemented with 10% heat-inactivated Fetal Bovine Serum (FBS) and 5% Penicillin/Streptomycin solution. McCoy's 5A, 1× (Iwakata & Grace modified) medium with L-Glutamine, DPBS, 1× w/o Ca and Mg, Penicillin/Streptomycin solution, Trypsin EDTA, 1× and PBS, 1× w/o Ca and Mg were purchased from Mediatech, Inc. (USA). FBS was purchased from Hyclone (USA).
The cytotoxicity of the compounds was estimated using the MTT assay. A 96-well plate was seeded with 100 μl medium containing HCT116 cells in suspension at a density of 2.5×10^4 cells/ml. After 24 hours of incubation, the cells were treated with the compounds, which were dissolved in DMSO (dimethyl sulfoxide) as stock solutions and diluted to final concentrations of 100 μM, 50 μM, 25 μM, 12.5 μM, 6.25 μM & 1 μM (for compounds tested in the micromolar concentrations) and 10 μM, 1 μM, 500 nM, 250 nM, 125 nM & 62.5 nM (for compounds tested in the nanomolar concentration range) using medium containing 0.1% DMSO. The final concentration of DMSO in the culture medium was maintained at 0.1%-0.001% (v/v). After 48 hrs incubation in the presence of test compounds, the spent medium was removed and the wells were washed twice with 100 μL of PBS solution. 100 μL of fresh medium and 10 μL of MTT (5 mg/ml in PBS) was added to the wells and incubated at 37° C. in dark for 4 hrs. The formazan product was dissolved by adding 100 μL of 100% DMSO after removing the medium from each well and was stabilized by adding 12.5 μL of Sorensen's glycine buffer to each well. […]

[1] = HCT-116, 48 hrs incubation, absorbance 490 nm, primary screening, read-out: IC50

SMILES	IC50 (HCT116 cells; [1]) [µM]	melting point [°C]	IC50 (HCT116 cells; HCT-116, further evaluated after secondary screening (Table VIII), read-out: IC50 value) [µM]
COc1cc(OC)c(C2=CCN(C)CC2)c(O)c1C(=O)/C=C/c1cccc(Cl)c1 [Compound A7, (E)-3-(3-chlorophenyl)-1-(2-hydroxy-4,6-dimethoxy-3-(1-methyl-1,2,3,6-tetrahydropyridine-4-yl)phenyl)-2-propylene-1-one]	3.24	182 to 184	
COc1cc(OC)c(C(=O)/C=C/c2ccc(Cl)cc2)c(O)c1CN1CCOCC1 [Compound D3, (E)-3-(4-chlorophenyl)-1-(2-hydroxy-4,6-dimethoxy-3-(morpholin-4-ylmethyl)phenyl)-2-propylene-1-one]	6.97	140 to 141	
COc1cc(OC)c2c(=O)cc(-c3ccc(C)cc3)oc2c1C1=CCN(C)CC1 [Compound F3, 5,7-dimethoxy-8-(1-methyl-1,2,3,6-tetrahydropyridin-4-yl)-2-(4-methylphenyl)-4H-chromen-4-one]	21.1	113 to 114	
COc1cc(-c2cc(=O)c3c(OC)cc(OC)c(C4=CCN(C)CC4)c3o2)cc(OC)c1OC [Compound F8, 5,7-dimethoxy-8-(1-methyl-1,2,3,6-tetrahydropyridin-4-yl)-2-(3,4,5-trimethoxy-phenyl)-4H-chromen-4-one]	25.9	211 to 212	
COc1cc(OC)c(C2=CCN(C)CC2)c(O)c1C(=O)/C=C/c1ccc(N(C)C)cc1 [Compound A14, (E)-3-(4-dimethylaminophenyl)-1-(2-hydroxy-4,6-dimethoxy-3-(1-methyl-1,2,3,6-tetrahydropyridine-4-yl)phenyl)-2-propylene-1-one]	30.5	176 to 177	
COc1cc(OC)c(C2=CCNCC2)c(O)c1C(=O)/C=C/c1ccc(Cl)cc1 [Compound B12, (E)-3-(4-chlorophenyl)-1-(2-hydroxy-4,6-dimethoxy-3-(1,2,3,6-tetrahydropyridine-4-yl)phenyl)-2-propylene-1-one]	4.82	93 to 94	
COc1cc(OC)c(C2=CCN(C)CC2)c(O)c1C(=O)/C=C/c1ccc(C#N)cc1 [Compound A15, (E)-3-(4-cyanophenyl)-1-(2-hydroxy-4,6-dimethoxy-3-(1-methyl-1,2,3,6-tetrahydropyridine-4-yl)phenyl)-2-propylene-1-one]	13.3	125 to 126	
COc1cc(OC)c(C2=CCN(C)CC2)c(O)c1C(=O)/C=C/c1cccc([N+](=O)[O-])c1 [Compound A8, (E)-1-(2-hydroxy-4,6-dimethoxy-3-(1-methyl-1,2,3,6-tetrahydropyridine-4-yl)phenyl)-3-(3-nitrophenyl)-2-propylene-1-one]	10.5	128 to 130	
COc1cc(OC)c(C2=CCN(C)CC2)c(O)c1C(=O)/C=C/c1ccc(C)cc1 [Compound A9, (E)-1-(2-hydroxy-4,6-dimethoxy-3-(1-methyl-1,2,3,6-tetrahydropyridine-4-yl)phenyl)-3-(4-methylphenyl)-2-propylene-1-one]	3.87	150 to 151	
COc1ccc(/C=C/C(=O)c2c(OC)cc(OC)c(C3=CCN(C)CC3)c2O)c(OC)c1OC [Compound A16, (E)-1-(2-hydroxy-4,6-dimethoxy-3-(1-methyl-1,2,3,6-tetrahydropyridine-4-yl)phenyl)-3-(2,3-4-trimethoxyphenyl)-2-propylene-1-one]	3.31	145 to 147	
COc1ccc(/C=C/C(=O)c2c(OC)cc(OC)c(CN3CCOCC3)c2O)cc1 [Compound D2, (E)-1-(2-hydroxy-4,6-dimethoxy-3-(morpholin-4-ylmethyl)phenyl)-3-(4-methoxyphenyl)-2-propylene-1-one]	21.4	159 to 160	
COc1cc(OC)c(C(=O)/C=C/c2cccc(Cl)c2)c(O)c1CN1CCOCC1 [Compound D5, (E)-3-(3-chlorophenyl)-1-(2-hydroxy-4,6-dimethoxy-3-(morpholinemethyl)phenyl)-2-propylene-1-one]	2.8	135 to 136	
COc1cc(OC)c(C2=CCNCC2)c(O)c1C(=O)/C=C/c1ccc(O)cc1 [Compound B11, (E)-1-(2-hydroxy-4,6-dimethoxy-3-(1,2,3,6-tetrahydropyridine-4-yl)phenyl)-3-(4-hydroxyphenyl)-2-propylene-1-one]	4.03	109 to 110	
COc1cc(OC)c(C(=O)/C=C/c2ccc(Br)cc2)c(O)c1CN1CCOCC1 [Compound D4, (E)-3-(4-bromophenyl)-1-(2-hydroxy-4,6-dimethoxy-3-(morpholin-4-ylmethyl)phenyl)-2-propylene-1-one]	5.52	144 to 145	~3
COc1cc(OC)c(C2=CCNCC2)c(O)c1C(=O)/C=C/c1cccc(C)c1 [Compound B5, (E)-1-(2-hydroxy-4,6-dimethoxy-3-(1,2,3,6-tetrahydropyridine-4-yl)phenyl)-3-(3-methylphenyl)-2-propylene-1-one]	6.13	95 to 96	
COc1cc(OC)c(C2=CCNCC2)c(O)c1C(=O)/C=C/c1ccc(N(C)C)cc1 [Compound B14, (E)-3-(4-dimethylaminophenyl)-1-(2-hydroxy-4,6-dimethoxy-3-(1,2,3,6-tetrahydropyridine-4-yl)phenyl)-2-propylene-1-one]	32	127 to 128	
COc1cc(/C=C/C(=O)c2c(OC)cc(OC)c(C3=CCNCC3)c2O)cc(OC)c1OC [Compound B17, (E)-1-(2-hydroxy-4,6-dimethoxy-3-(1,2,3,6-tetrahydropyridine-4-yl)phenyl)-3-(3,4,5-trimethoxyphenyl)-2-propylene-1-one]	4.2	124 to 125	
COc1cc(OC)c(C2=CCN(C)CC2)c(O)c1C(=O)/C=C/c1ccccc1Cl [Compound A2, (E)-3-(2-chlorophenyl)-1-(2-hydroxy-4,6-dimethoxy-3-(1-methyl-1,2,3,6-tetrahydropyridine-4-yl)phenyl)-2-propylene-1-one]	28.3	184 to 185	
COc1cc(OC)c(C2=CCNCC2)c(O)c1C(=O)/C=C/c1ccc(C)cc1 [Compound B9, (E)-1-(2-hydroxy-4,6-dimethoxy-3-(1,2,3,6-tetrahydropyridine-4-yl)phenyl)-3-(4-methylphenyl)-2-propylene-1-one]	4.02	98 to 100	
COc1cccc(-c2cc(=O)c3c(OC)cc(OC)c(C4=CCN(C)CC4)c3o2)c1OC [Compound F6, 5,7-dimethoxy-8-(1-methyl-1,2,3,6-tetrahydropyridin-4-yl)-2-(2,3-dimethoxy-phenyl)-4H-chromen-4-one]	61.3	195 to 196	
COc1cc(OC)c(C2=CCN(C)CC2)c(O)c1C(=O)/C=C/c1ccc(Br)cc1 [Compound A13, (E)-3-(4-bromophenyl)-1-(2-hydroxy-4,6-dimethoxy-3-(1-methyl-1,2,3,6-tetrahydropyridine-4-yl)phenyl)-2-propylene-1-one]	8.76	164 to 165	
COc1ccc(-c2cc(=O)c3c(O)cc(O)c(C4=CCN(C)CC4)c3o2)cc1 [Compound G4, 5,7-hydroxy-8-(1-methyl-1,2,3,6-tetrahydropyridin-4-yl)-2-(4-methoxyphenyl)-4H-chromen-4-one]	3.16	190 to 191	
